Measured values: US20220380341A1, “INHIBITORS OF HIV-1 NEF FOR THE TREATMENT OF HIV DISEASE” (priority 2018, published 2022)
Where two headings read alike, the source gives them in different places.

What was measured:
HIV-1NL4-3 = test: HIV-1 infectivity assay in TZM-bl reporter cell line (LTR-luciferase, 48 h); format: cell-based; conditions: Human immunodeficiency virus 1, TZM-bl
Method in brief: (§1)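 Read-out is luciferase from an integrated HIV-1 LTR reporter in TZM-bl cells, 48 h after HIV-1NL4-3 infection in the presence of 1 μM compound. Scale set by DMSO-treated wild-type-infected cells (0%) and Nef-defective virus (100% Nef-dependent effect). Cell Titer Blue measures cytotoxicity without virus.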

TZM-bl cell line = format: cell-based; conditions: human, 1 μM
Method in brief: as §1

HIV-1 NefNL4-3 = HIV-1 NefNL4-3 (Human immunodeficiency virus type 1 group M subtype B, UniProt P03406, A33V/T15A/T51N/V11I); test: Surface plasmon resonance binding to recombinant full-length Nef (NL4-3); conditions: for RU30/RUNef (extent of binding): response units at 30 μM relative to Nef immobilized on the SPR chip
[1] = 1.0 μM, TZM-bl reporter cell line, Table 4, read-out: % Infectivity Inhibition
[2] = KD, M, Table 4, SPR fit 1:1 Langmuir, KD = koff/kon
[3] = Table 4, 1:1 Langmuir fit, T = 1/koff
[4] = 48 h, Table 1, TZM-bl cells, 1 μM, 48 h, 100% = Nef-defective HIV-1, read-out: HIV-1 Infectivity % Inhibition Norm. to Δ-Nef @ 1 μM
[5] = KD, M, Table 4, SPR fit 2-step induced fit, KD = koff/kon × koff2/(koff2 + kon2)
[6] = Nef NL4-3 Binding, SPR 2-state fitting KD, Table 1, 2-step induced-fit model
[7] = Table 4, 2-step induced fit, T = 1/koff2
[8] = read-out: Nef NL4-3 Binding, SPR 1:1 or 2-site fitting KD2, Table 1, 2-site fit, second component

SMILES	inhibition at 1 µM (HIV-1NL4-3; [1])	inhibition at 1 µM (HIV-1NL4-3; 48 h, Table 2, TZM-bl cells, 1 μM, 48 h, 100% = Nef-defective HIV-1, read-out: HIV-1 Infectivity % Inhibition Norm. to Δ-Nef @ 1 μM)	% Cell Viability (TZM-bl cell line)	Percent Viability @ 1 μM (TZM-bl cells) (TZM-bl cell line)	Kd (HIV-1 NefNL4-3)	Kd (HIV-1 NefNL4-3; [2])	T, minutes (residence time) (HIV-1 NefNL4-3; [3])	RU30/RUNef (extent of binding) (HIV-1 NefNL4-3)	inhibition at 1 µM (HIV-1NL4-3; [4])	Kd (HIV-1 NefNL4-3; [5])	Kd (HIV-1 NefNL4-3; [6])	T, minutes (residence time) (HIV-1 NefNL4-3; [7])	Kd (HIV-1 NefNL4-3; [8])	Kd (HIV-1 NefNL4-3; Nef NL4-3 Binding, SPR 1:1 or 2-site fitting KD2, Table 1, 2-site fit, second component)	Nef NL4-3 Binding, SPR 1:1 or 2-site fitting KD1 (HIV-1 NefNL4-3; Table 1, 1:1 Langmuir fit where the KD2 cell says '1 to 1 fitting', else 2-site fit)
Oc1c(CCc2ccc(F)cc2)c(C2CCOCC2)nn1-c1cc(C(F)(F)F)n[nH]1 [Compound I-623, 4-[2-(4-fluorophenyl)ethyl]-3-(oxan-4-yl)-5′-(trifluoromethyl)-2′H-[1,3′-bipyrazol]-5-ol]	17.4%	17.4%	100%	100.7%	221 µM	221 µM	2.88E + 00 minutes	1.67E- 02	–	–	–	–	–	–	–
CC(=O)N1CCC(c2nn(-c3nc4cc(Cl)ccc4[nH]3)c(O)c2CCC2CCOCC2)CC1 [Compound I-703, 1-{4-[1-(5-chloro-1H-1,3-benzodiazol-2-yl)-5-hydroxy-4-[2-(oxan-4-yl)ethyl]-1H-pyrazol-3-yl]piperidin-1-yl}ethan-1-one]	–	–	–	99.2%	1.54 µM	–	–	–	-8.1%	–	–	–	–	–	–
CC(=O)N1CCC(c2nn(-c3nc4cc(Cl)ccc4[nH]3)c(O)c2CCn2nccn2)CC1 [Compound I-704, 1-{4-[1-(5-chloro-1H-1,3-benzodiazol-2-yl)-5-hydroxy-4-[2-(2H-1,2,3-triazol-2-yl)ethyl]-1H-pyrazol-3-yl]piperidin-1-yl}ethan-1-one]	6.6%	–	99.4%	99.4%	3.62 µM	3.62 µM	7.61E + 00 minutes	1.92E- 03	6.6%	–	–	–	–	–	–
COC(=O)N1CCC(c2nn(-c3nc4cc(Cl)ccc4[nH]3)c(O)c2CCn2nccn2)CC1 [Compound I-705, methyl 4-[1-(5-chloro-1H-1,3-benzodiazol-2-yl)-5-hydroxy-4-[2-(2H-1,2,3-triazol-2-yl)ethyl]-1H-pyrazol-3-yl]piperidine-1-carboxylate]	–	–	–	100.9%	1.11 µM	–	–	–	-13.8%	–	–	–	–	–	–
CS(=O)(=O)N1CCC(c2nn(-c3nc4cc(Cl)ccc4[nH]3)c(O)c2CCC2CCOCC2)CC1 [Compound I-706, 1-(5-chloro-1H-1,3-benzodiazol-2-yl)-3-(1-methanesulfonylpiperidin-4-yl)-4-[2-(oxan-4-yl)ethyl]-1H-pyrazol-5-ol]	9.8%	–	98.6%	98.6%	1.17 µM	1.17 µM	3.95E + 00 minutes	2.34E- 03	9.8%	–	–	–	–	–	–
CS(=O)(=O)N1CCC(c2nn(-c3nc4cc(Cl)ccc4[nH]3)c(O)c2CCn2nccn2)CC1 [Compound I-707, 1-(5-chloro-1H-1,3-benzodiazol-2-yl)-3-(1-methanesulfonylpiperidin-4-yl)-4-[2-(2H-1,2,3-triazol-2-yl)ethyl]-1H-pyrazol-5-ol]	0%	–	100%	109.3%	1.98 µM	1.98 µM	4.33E + 00 minutes	1.81E- 03	-10.6%	–	–	–	–	–	–
COC(=O)N1CCC(CCc2c(-c3ccc(C(F)(F)F)cn3)nn(-c3nc4cc(Br)ccc4[nH]3)c2O)CC1 [Compound I-708, methyl 4-{2-[1-(5-bromo-1H-1,3-benzodiazol-2-yl)-5-hydroxy-3-[5-(trifluoromethyl)pyridin-2-yl]-1H-pyrazol-4-yl]ethyl}piperidine-1-carboxylate]	100%	–	77.8%	77.8%	0.0014 µM	0.0014 µM	1.00E + 04 minutes	2.04E- 03	117%	–	–	–	–	–	–
CC(=O)N1CCC(CCc2c(-c3ccc(C(F)(F)F)cn3)nn(-c3nc4cc(Br)ccc4[nH]3)c2O)CC1 [Compound I-709, 1-(4-{2-[1-(5-bromo-1H-1,3-benzodiazol-2-yl)-5-hydroxy-3-[5-(trifluoromethyl)pyridin-2-yl]-1H-pyrazol-4-yl]ethyl}piperidin-1-yl)ethan-1-one]	66.7%	–	74.0%	74.0%	0.0263 µM	0.0263 µM	5.18E + 02 minutes	8.85E- 04	66.7%	–	–	–	–	–	–
O=C(c1ccc(F)cc1)N1CCC(CCc2c(C3CC3)nn(-c3nc4cc(Cl)ccc4[nH]3)c2O)CC1 [Compound I-710, 1-(5-chloro-1H-1,3-benzodiazol-2-yl)-3-cyclopropyl-4-{2-[1-(4-fluorobenzoyl)piperidin-4-yl]ethyl}-1H-pyrazol-5-ol]	2.5%	–	100%	106.9%	–	–	–	2.12E- 02	2.5%	2.46 µM	2.46 µM	4.16E + 00 minutes	9.78 µM	–	–
O=C(C1CC1)N1CCC(CCc2c(C3CC3)nn(-c3nc4cc(Cl)ccc4[nH]3)c2O)CC1 [Compound I-711, 1-(5-chloro-1H-1,3-benzodiazol-2-yl)-4-[2-(1-cyclopropanecarbonylpiperidin-4-yl)ethyl]-3-cyclopropyl-1H-pyrazol-5-ol]	0%	–	97.2%	97.2%	–	–	–	1.96E- 02	-0.4%	3.29 µM	3.29 µM	5.97E + 00 minutes	8.64 µM	–	–
CC(=O)N1CCC(c2c(-c3ccc(C(F)(F)F)cc3)nn(-c3nc4ccccc4[nH]3)c2O)CC1 [Compound I-713, 1-{4-[1-(1H-1,3-benzodiazol-2-yl)-5-hydroxy-3-[4-(trifluoromethyl)phenyl]-1H-pyrazol-4-yl]piperidin-1-yl}ethan-1-one]	–	–	–	76.8%	378 µM	–	–	–	27.8%	–	–	–	–	–	–
CC(=O)N1CCC(CCc2c(-c3ccc(C(F)(F)F)cn3)nn(-c3nc4ccccc4[nH]3)c2O)CC1 [Compound I-714, 1-(4-{2-[1-(1H-1,3-benzodiazol-2-yl)-5-hydroxy-3-[5-(trifluoromethyl)pyridin-2-yl]-1H-pyrazol-4-yl]ethyl}piperidin-1-yl)ethan-1-one]	63.6%	–	98.3%	98.3%	1.11 µM	1.11 µM	3.64E + 00 minutes	1.32E- 03	63.6%	–	–	–	–	–	–
COC(=O)N1CCC(CCc2c(-c3ccc(C(F)(F)F)cn3)nn(-c3nc4ccccc4[nH]3)c2O)CC1 [Compound I-715, methyl 4-{2-[1-(1H-1,3-benzodiazol-2-yl)-5-hydroxy-3-[5-(trifluoromethyl)pyridin-2-yl]-1H-pyrazol-4-yl]ethyl}piperidine-1-carboxylate]	25.2%	–	99.1%	99.1%	0.686 µM	–	–	5.47E- 03	25.2%	2.51 µM	2.51 µM	3.76E + 00 minutes	–	1.33 µM	–
CS(=O)(=O)N1CCC(CCc2c(-c3ccc(C(F)(F)F)cn3)nn(-c3nc4ccccc4[nH]3)c2O)CC1 [Compound I-716]	22.8%	–	97.1%	97.1%	1.97 µM	–	–	5.13E- 03	22.8%	4.37 µM	4.37 µM	3.22E + 00 minutes	–	–	–
CC(C)OC(=O)N1CCC(CCc2c(-c3ccc(Br)cn3)nn(-c3nc4ccccc4[nH]3)c2O)CC1 [Compound I-717, propan-2-yl4-{2-[1-(1H-1,3-benzodiazol-2-yl)-3-(5-bromopyridin-2-yl)-5-hydroxy-1H-pyrazol-4-yl]ethyl}piperidine-1-carboxylate]	–	–	–	104.1%	–	–	–	–	-1.8%	–	–	–	–	–	No Interaction
CS(=O)(=O)N1CCC(Cc2c(-c3ccc(C(F)(F)F)cc3)nn(-c3nc4ccccc4[nH]3)c2O)CC1 [Compound I-718, 1-(1H-1,3-benzodiazol-2-y1)-4-[(1-methanesulfonylpiperidin-4-yl)methyl]-3-[4-(trifluoromethyl)phenyl]-1H-pyrazol-5-ol]	56.3%	–	89.1%	89.1%	0.597 µM	0.597 µM	3.62E + 00 minutes	1.22E- 03	56.3%	–	–	–	–	–	–
